Experimental data taken from article PMC9917201, “Enhanced Antibacterial Activity of Substituted Derivatives of NCR169C Peptide” (International Journal of Molecular Sciences, 2023).
Converted amounts (≈) assume the structure as drawn. Where two headings read alike, the source gives them in different places. Non-standard residues stand in square brackets, D forms with d. Residues, ends and D or L forms follow the SMILES beside them. ξ: configuration not given here. Trp(5-F) = N[C@@H](Cc1c[nH]c2ccc(F)cc12)C(=O)O; ξTrp(5-Me) = Cc1ccc2[nH]cc(CC(N)C(=O)O)c2c1

Assays:
Type in all cases: cell-based
[1] = system: Acinetobacter baumannii (ATCC 17978)
Text: (§1) The bacterial strains for the antimicrobial assay were obtained from the ATCC (American Type Culture Collection, Manassas, VA, USA) and NCTC (National Collection of Type Cultures, Salisbury, UK). Gram-negative strains were Pseudomonas aeruginosa (ATCC 27853), Escherichia coli (ATCC 8739, ATCC 35218, and ATCC 25922), Salmonella enterica (ATCC 13076), Klebsiella pneumoniae (NCTC 13440), Acinetobacter baumannii (ATCC 17978) and the Gram-positive strains were Enterococcus faecalis (ATCC 29212), Listeria monocytogenes (ATCC 19111), and Staphylococcus aureus (HNCMO112011 and ATCC 25923).
(§2) Determination of antibacterial activity for the peptides was carried out by utilizing a minimum bactericidal concentration (MBC) bioassay. Synthesized peptides were dissolved in sterile water and used from 25 to 0.125 μM in 2-fold dilution series and incubated with ~10^7 log phase bacteria in Potassium-Phosphate Buffer (PPB, pH: 7.4) for three hours as described earlier. After that, 5 μl of each sample was placed on LB agar and the growth of bacteria was monitored after overnight incubation at 37 °C. The lowest concentration of the antimicrobial agents that completely eliminated viable bacteria was considered the minimal bactericidal concentration (MBC).

[2] = system: Enterococcus faecalis (ATCC 29212)
Text: as §1, §2

[3] = system: Escherichia coli (ATCC 8739); conditions: ATCC 8739, 3 h, pH 7.4
Text: as §1, §2

[4] = system: Klebsiella pneumoniae (NCTC 13440); conditions: NCTC 13440, 3 h, pH 7.4
Text: as §1, §2

[5] = system: Listeria monocytogenes (ATCC 19111); conditions: ATCC 19111, 3 h, pH 7.4
Text: as §1, §2

[6] = system: Pseudomonas aeruginosa (ATCC 27853); conditions: ATCC 27853, 3 h, pH 7.4
Text: as §1, §2

[7] = system: Salmonella enterica (ATCC 13076); conditions: ATCC 13076, 3 h, pH 7.4
Text: as §1, §2

[8] = system: Staphylococcus aureus (HNCMO112011); conditions: HNCMO112011, 3 h, pH 7.4
Text: as §1, §2

[9] = Acinetobacter baumannii ATCC 17978, ~10^7 log phase bacteria, 3 h in PPB pH 7.4, peptide 25 to 0.125 μM 2-fold series, plated on LB agar, overnight 37 °C

| Compound | Minimal bactericidal concentration (MBC) A. b. [1, 9] [µM] | Minimal bactericidal concentration (MBC) E. f. ([2]; ATCC 29212, 3 h, pH 7.4) [µM] | Minimal bactericidal concentration (MBC) E. c. [3] [µM] | Minimal bactericidal concentration (MBC) K. p. [4] [µM] | Minimal bactericidal concentration (MBC) L. m. [5] [µM] | Minimal bactericidal concentration (MBC) P. a. [6] [µM] | Minimal bactericidal concentration (MBC) S. e. [7] [µM] | Minimal bactericidal concentration (MBC) S. a. [8] [µM] | Minimal bactericidal concentration (MBC) A. b. ([1]; ATCC 17978, 3 h, pH 7.4) [µM] | Minimal bactericidal concentration (MBC) E. f. ([2]; Enterococcus faecalis ATCC 29212, ~10^7 log phase bacteria, 3 h in potassium-phosphate buffer (PPB) pH 7.4, peptide 25 to 0.125 μM 2-fold series, 5 μl on LB agar, overnight 37 °C) [µM] |
| --- | --- | --- | --- | --- | --- | --- | --- | --- | --- | --- |
| CC[C@H](C)[C@H](NC(=O)[C@H](CCCCN)NC(=O)[C@H](Cc1ccccc1)NC(=O)[C@H](CC(C)C)NC(=O)[C@@H]1CCCN1C(=O)[C@H](CCCCN)NC(=O)[C@H](CCCCN)NC(=O)[C@H](CO)NC(=O)[C@@H](N)CCCCN)C(=O)NC(Cc1c[nH]c2ccc(C)cc12)C(=O)N[C@@H](CCCCN)C(=O)N[C@@H](CO)C(=O)N[C@H](C(=O)N[C@@H](CCC(=O)O)C(=O)N[C@@H](CC(N)=O)C(=O)N[C@H](C(=O)N[C@@H](CO)C(=O)N[C@H](C(=O)N[C@@H](CC(C)C)C(=O)N[C@@H](Cc1c[nH]c2ccccc12)C(=O)N[C@@H](Cc1ccc(O)cc1)C(=O)N[C@@H](CCCCN)C(N)=O)C(C)C)C(C)C)C(C)C (some centres unmarked) [NCR169C17–38C12,17/S-10W^5-Me I] (H-KSKKPLFKI[ξTrp(5-Me)]KSVENVSVLWYK-NH2; N-terminus assumed) | 6.3 (≈ 17.1 µg/mL) | 3.1 (≈ 8.44 µg/mL) | 3.1 (≈ 8.44 µg/mL) | 6.3 (≈ 17.1 µg/mL) | 3.1 (≈ 8.44 µg/mL) | 3.1 (≈ 8.44 µg/mL) | 3.1 (≈ 8.44 µg/mL) | 3.1 (≈ 8.44 µg/mL) |  |  |
| CC[C@H](C)[C@H](NC(=O)[C@H](CCCCN)NC(=O)[C@H](Cc1ccccc1)NC(=O)[C@H](CC(C)C)NC(=O)[C@@H]1CCCN1C(=O)[C@H](CCCCN)NC(=O)[C@H](CCCCN)NC(=O)[C@H](CO)NC(=O)[C@@H](N)CCCCN)C(=O)N[C@@H](Cc1c[nH]c2ccccc12)C(=O)N[C@@H](CCCCN)C(=O)N[C@@H](CO)C(=O)N[C@H](C(=O)N[C@@H](CCC(=O)O)C(=O)N[C@@H](CC(N)=O)C(=O)N[C@H](C(=O)N[C@@H](CO)C(=O)N[C@H](C(=O)N[C@@H](CC(C)C)C(=O)NC(Cc1c[nH]c2ccc(C)cc12)C(=O)N[C@@H](Cc1ccc(O)cc1)C(=O)N[C@@H](CCCCN)C(N)=O)C(C)C)C(C)C)C(C)C (some centres unmarked) [NCR169C17–38C12,17/S-20W^5-Me II] (H-KSKKPLFKIWKSVENVSVL[ξTrp(5-Me)]YK-NH2; N-terminus assumed) |  |  | 1.6 (≈ 4.35 µg/mL) | 3.1 (≈ 8.44 µg/mL) | 3.1 (≈ 8.44 µg/mL) | 3.1 (≈ 8.44 µg/mL) | 3.1 (≈ 8.44 µg/mL) | 3.1 (≈ 8.44 µg/mL) | 3.1 (≈ 8.44 µg/mL) | 25 (≈ 68 µg/mL) |
| CC[C@H](C)[C@H](NC(=O)[C@H](CCCCN)NC(=O)[C@H](Cc1ccccc1)NC(=O)[C@H](CC(C)C)NC(=O)[C@@H]1CCCN1C(=O)[C@H](CCCCN)NC(=O)[C@H](CCCCN)NC(=O)[C@H](CO)NC(=O)[C@@H](N)CCCCN)C(=O)N[C@@H](C)C(=O)N[C@@H](CCCCN)C(=O)N[C@@H](CO)C(=O)N[C@H](C(=O)N[C@@H](CCC(=O)O)C(=O)N[C@@H](CC(N)=O)C(=O)N[C@H](C(=O)N[C@@H](CO)C(=O)N[C@H](C(=O)N[C@@H](CC(C)C)C(=O)N[C@@H](C)C(=O)N[C@@H](Cc1ccc(O)cc1)C(=O)N[C@@H](CCCCN)C(N)=O)C(C)C)C(C)C)C(C)C [NCR169C17–38W10,20/A,C12,17/S] (H-KSKKPLFKIAKSVENVSVLAYK-NH2) |  | 25 (≈ 61.9 µg/mL) | 6.3 (≈ 15.6 µg/mL) |  | 3.1 (≈ 7.68 µg/mL) | 3.1 (≈ 7.68 µg/mL) | 6.3 (≈ 15.6 µg/mL) | 6.3 (≈ 15.6 µg/mL) | 12.5 (≈ 31 µg/mL) |  |
| CC[C@H](C)[C@H](NC(=O)[C@H](CCCCN)NC(=O)[C@H](Cc1ccccc1)NC(=O)[C@H](CC(C)C)NC(=O)[C@@H]1CCCN1C(=O)[C@H](CCCCN)NC(=O)[C@H](CCCCN)NC(=O)[C@H](CO)NC(=O)[C@@H](N)CCCCN)C(=O)N[C@@H](Cc1c[nH]c2ccccc12)C(=O)N[C@@H](CCCCN)C(=O)N[C@@H](CO)C(=O)N[C@H](C(=O)N[C@@H](CCC(=O)O)C(=O)N[C@@H](CC(N)=O)C(=O)N[C@H](C(=O)N[C@@H](CO)C(=O)N[C@H](C(=O)N[C@@H](CC(C)C)C(=O)N[C@@H](Cc1c[nH]c2ccc(F)cc12)C(=O)N[C@@H](Cc1ccc(O)cc1)C(=O)N[C@@H](CCCCN)C(N)=O)C(C)C)C(C)C)C(C)C [NCR169C17–38C12,17/S-20W^5-F-L] (H-KSKKPLFKIWKSVENVSVL[Trp(5-F)]YK-NH2; N-terminus assumed) |  | 3.1 (≈ 8.45 µg/mL) | 3.1 (≈ 8.45 µg/mL) | 3.1 (≈ 8.45 µg/mL) | 3.1 (≈ 8.45 µg/mL) | 6.3 (≈ 17.2 µg/mL) | 3.1 (≈ 8.45 µg/mL) | 1.6 (≈ 4.36 µg/mL) | 3.1 (≈ 8.45 µg/mL) |  |
| CC[C@H](C)[C@H](NC(=O)[C@H](CCCCN)NC(=O)[C@H](Cc1ccccc1)NC(=O)[C@H](CC(C)C)NC(=O)[C@@H]1CCCN1C(=O)[C@H](CCCCN)NC(=O)[C@H](CCCCN)NC(=O)[C@H](CO)NC(=O)[C@@H](N)CCCCN)C(=O)N[C@@H](C)C(=O)N[C@@H](CCCCN)C(=O)N[C@@H](C)C(=O)N[C@H](C(=O)N[C@@H](CCC(=O)O)C(=O)N[C@@H](CC(N)=O)C(=O)N[C@H](C(=O)N[C@@H](C)C(=O)N[C@H](C(=O)N[C@@H](CC(C)C)C(=O)N[C@@H](C)C(=O)N[C@@H](Cc1ccc(O)cc1)C(=O)N[C@@H](CCCCN)C(N)=O)C(C)C)C(C)C)C(C)C [NCR169C17–38W10,20C12,17/A] (H-KSKKPLFKIAKAVENVAVLAYK-NH2) |  |  | 6.3 (≈ 15.4 µg/mL) |  |  | 3.1 (≈ 7.58 µg/mL) | 6.3 (≈ 15.4 µg/mL) | 6.3 (≈ 15.4 µg/mL) | 12.5 (≈ 30.6 µg/mL) |  |
| CC[C@H](C)[C@H](NC(=O)[C@H](CCCCN)NC(=O)[C@H](Cc1ccccc1)NC(=O)[C@H](CC(C)C)NC(=O)[C@@H]1CCCN1C(=O)[C@H](CCCCN)NC(=O)[C@H](CCCCN)NC(=O)[C@H](CO)NC(=O)[C@@H](N)CCCCN)C(=O)NC(Cc1c[nH]c2ccc(C)cc12)C(=O)N[C@@H](CCCCN)C(=O)N[C@@H](CO)C(=O)N[C@H](C(=O)N[C@@H](CCC(=O)O)C(=O)N[C@@H](CC(N)=O)C(=O)N[C@H](C(=O)N[C@@H](CO)C(=O)N[C@H](C(=O)N[C@@H](CC(C)C)C(=O)N[C@@H](Cc1c[nH]c2ccccc12)C(=O)N[C@@H](Cc1ccc(O)cc1)C(=O)N[C@@H](CCCCN)C(N)=O)C(C)C)C(C)C)C(C)C (some centres unmarked) [NCR169C17–38C12,17/S-10W^5-Me II] (H-KSKKPLFKI[ξTrp(5-Me)]KSVENVSVLWYK-NH2; N-terminus assumed) | 3.1 (≈ 8.44 µg/mL) | 3.1 (≈ 8.44 µg/mL) | 3.1 (≈ 8.44 µg/mL) | 6.3 (≈ 17.1 µg/mL) | 3.1 (≈ 8.44 µg/mL) | 3.1 (≈ 8.44 µg/mL) | 3.1 (≈ 8.44 µg/mL) | 3.1 (≈ 8.44 µg/mL) |  |  |
